Experimental findings from ChEMBL document CHEMBL3044541, “Control of crown rot-causing fungal pathogens of banana by inorganic salts and a surfactant” (Crop Prot, 2007) are described below.

Calls of active or inactive are those of the source. No cut-off for these calls is given here.

The test system of experiment [1] is Fusarium verticillioides. Nature of the experiment: Antifungal activity against Fusarium verticillioides assessed as inhibition of conidium germination at 5 g/l incubated for 15 min followed by compound washout measured after 7 days by microscopic analysis in presence of surfactant APSA 80. In kind it is functional, organism-based.
Experiment [2] concerns Thielaviopsis paradoxa. Briefly: Antifungal activity against Ceratocystis paradoxa assessed as inhibition of conidium germination at 5 g/l incubated for 15 min followed by compound washout measured after 2 days by microscopic analysis in absence of surfactant APSA 80. In kind it is functional, organism-based.
Experiment [3] concerns Lasiodiplodia theobromae. Briefly: Antifungal activity against Lasiodiplodia theobromae assessed as inhibition of conidium germination at 5 g/l incubated for 15 min followed by compound washout measured after 2 days by microscopic analysis in absence of surfactant APSA 80. In kind it is functional, organism-based.
In experiment [4] the test system is Fusarium verticillioides. Nature of the experiment: Antifungal activity against Fusarium verticillioides assessed as inhibition of conidium germination at 5 g/l incubated for 15 min followed by compound washout measured after 2 days by microscopic analysis in absence of surfactant APSA 80. In kind it is functional, organism-based.
Experiment [5] deals with Thielaviopsis paradoxa. Briefly: Growth inhibition of Ceratocystis paradoxa assessed as inhibition of mycelial growth up to 160 g/l incubated for 15 min followed by compound washout measured after 7 days in absence of surfactant APSA 80. In kind it is functional, organism-based.
Experiment [6] concerns Thielaviopsis paradoxa. Briefly: Growth inhibition of Ceratocystis paradoxa assessed as inhibition of mycelial growth up to 160 g/l incubated for 15 min followed by compound washout measured after 7 days in presence of surfactant APSA 80. In kind it is functional.
Experiment [7] deals with Fusarium verticillioides. Briefly: Growth inhibition of Fusarium verticillioides assessed as inhibition of mycelial growth up to 160 g/l incubated for 15 min followed by compound washout measured after 7 days in absence of surfactant APSA 80. In kind it is functional.
For experiment [8], the system named is Colletotrichum musae. Briefly: Antifungal activity against Colletotrichum musae assessed as inhibition of conidium germination at 5 g/l incubated for 15 min followed by compound washout measured after 7 days by microscopic analysis in presence of surfactant APSA 80. In kind it is functional, organism-based.
Experiment [9] concerns Fusarium verticillioides. Briefly: Growth inhibition of Fusarium verticillioides assessed as inhibition of mycelial growth up to 160 g/l incubated for 15 min followed by compound washout measured after 7 days in presence of surfactant APSA 80. In kind it is functional, organism-based.
For experiment [10], the system named is Thielaviopsis paradoxa. Briefly: Antifungal activity against Ceratocystis paradoxa assessed as inhibition of conidium germination at 5 g/l incubated for 15 min followed by compound washout measured after 7 days by microscopic analysis in presence of surfactant APSA 80. In kind it is functional, organism-based.
For experiment [11], the system named is Colletotrichum musae. Nature of the experiment: Antifungal activity against Colletotrichum musae assessed as inhibition of conidium germination at 5 g/l incubated for 15 min followed by compound washout measured after 2 days by microscopic analysis in absence of surfactant APSA 80. In kind it is functional, organism-based.
Experiment [12] relates to Colletotrichum musae. Nature of the experiment: Growth inhibition of Colletotrichum musae assessed as inhibition of mycelial growth up to 160 g/l incubated for 15 min followed by compound washout measured after 7 days in absence of surfactant APSA 80. In kind it is functional.
Experiment [13] concerns Colletotrichum musae. Nature of the experiment: Growth inhibition of Colletotrichum musae assessed as inhibition of mycelial growth up to 160 g/l incubated for 15 min followed by compound washout measured after 7 days in presence of surfactant APSA 80. In kind it is functional, organism-based.
The subject of experiment [14] is Lasiodiplodia theobromae. Briefly: Antifungal activity against Lasiodiplodia theobromae assessed as inhibition of conidium germination at 5 g/l incubated for 15 min followed by compound washout measured after 7 days by microscopic analysis in presence of surfactant APSA 80. In kind it is functional, organism-based.

Consider `O=C([O-])O.[Na+]`, for which the inhibition entry in experiment [1], in experiment [2], in experiment [3], in [4], in experiment [8] and in [10] was “Active” throughout. In addition, the inhibition entry in experiment [11] and in [14] was “Active” in each case. Further, the result in experiment [5], in [6], in [7], in experiment [9], in experiment [12] and in [13] was inactive.
In the case of `O=C([O-])[O-].[Na+].[Na+]`, the outcome in [7] and in [12] was inactive.
